# Data published in patent US20220304957A1, “ANTI-CANCER COMPOSITIONS AND METHODS OF USE” (Board of Supervisors of Louisiana State University and …, priority 2019, published 2022).
# Columns and labels:
# [1] = test system: intracranial GL-261 glioblastoma tumors; assay: Intracranial GL-261-luc glioblastoma model, pathological evaluation of tumors; assay type: in vivo, C57BL/6 mice; details: 50 mg/kg/day oral, 14 days, large pre-existing tumors, n=3
# Method: Panel A: PP1 accumulation in different tissues following oral administration of PP1 (25 mg/kg). C57BL/6 mice were treated daily for 14 days, and the levels of PP1 in the blood, liver, spleen, kidney, heart, brain and in brain tumors, were evaluated by HPLC, as previously described. Data represent average values with standard deviation (n=3). Panel B: Body weight of C57BL/6 mice treated with PP1. Mice were treated with the PP1 at doses ranging from 25 to 75 mg/kg/day administered by oral gavage. Following 7 and 14 days of daily drug administration both control (DMSO-treated) and experimental (PP1-treated) mice were weighted. Data represent average values with standard deviation (at least three mice per group were included). In Panels A and B, tumor free and tumor bearing mice were included for the body weight measurement. Panels C, D and E: Intracranial growth of GL-261-Luc cells. […] Tumor size is expressed as radiance (photons/s/cm2/sr) and was quantified with the Living Image 4.1 software according to the manufacturer's recommendations (Xenogen). […]
# Animal studies—All described procedures involving experimental animals were performed in accordance to the IACUC protocol #3444 at LSUHSC, New Orleans. […] The resulting images were evaluated and luminescence measurements from equivalent regions of interest encompassing the entire skull were collected using Living Image 4.1 software (Xenogen). […]
# Water solubility (HPLC) = assay type: physicochemical; details: room temperature, sonicated one hour
# Method: (§1) Aliquots of 50 μM PP1 and FF in DMSO were added to 500 μl to heparinized human blood to a final concentration of 50 μM. Following incubation at 37° C. for the indicated time points, the samples were frozen at −80° C., and later prepared for HPLC-based detection of the compounds. Please note that FF is converted to FA in the presence of human blood. […] Data represent average values with standard deviation (n=3). panel B: Water solubility. FF and PP1, were added to water to a final concentration of 50 mM and sonicated in an ultrasonic bath (Branson 1510 Digital Heated Ultrasonic bath) for one hour at room temperature. The samples were then centrifuged for 10 minutes at 16000×g, and the supernatant filtered through 0.45 μm syringe filter. Water solubilized PP1 and FF were subsequently processed for HPLC analysis (see Methods). Data represent average values with standard deviation (n=3). panel C: Effects of PP compounds on PPAR responsive elements (PPRE). The PPAR transcriptional activity was determined in HepG2 cells by the JsTkpGL3 reporter plasmid, which contains a firefly luciferase gene driven by the PPRE, which consists of three copies of the J site from the apo-AII gene promoter. […] The luciferase activity was detected with Dual-Luciferase reporter assay system (Promega, Madison, Wis.), and the resulting luminescence measured with Synergy 2 microplate reader (BioTek, Winooski, Vt.). […]
# [2] = Stability in human blood (HPLC); assay type: in vitro ADME; details: 50 μM added, 37 °C, 48-hour time point
# Method: as §1, with “Water solubilized PP1 and FF were subsequently processed for HPLC analysis (see Methods). Data represent average values with standard deviation (n=3). panel C: Effects of PP compounds on PPAR responsive elements (PPRE).” left out
# In this experiment, 50 μM of PP1 and 50 μM of FF were incubated with human blood at […], at indicated time points. […] In contrast, nearly 25 μM of PP1 was still detected at the 48-hour time point (FIG. 4A; left panel).
smiles,measurement,setting,value
"CN(CCO)C(=O)C(C)(C)Oc1ccc(C(=O)c2ccc(Cl)cc2)cc1 [PP1, 2-[4-(4-chlorobenzoyl)phenoxy]-N-(2-hydroxyethyl)-N,2-dimethylpropanamide]",necrosis within the tumor mass,[1],multiple large areas of necrotic tissue within the tumor mass
same,water solubility in comparison to FF,Water solubility (HPLC),much better soluble in water
same,compound still detected in human blood,[2],~25 µM
